Assay results published in PubChem BioAssay (NCI).
Values joined by “and” are separate entries in the source; they are usually repeats but may differ in a detail not shown here. Equal values may be shown once.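 Cultured in 96-well plates, cells were exposed to test compound for 48 hours across five concentrations. At the GI50, growth is halved. TGI: concentration producing complete growth inhibition.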

How the values were obtained:
Assay in all cases: NCI-60 cell line screen, 48 h
K-562 leukemia = system: K-562 leukemia
OVCAR-5 ovarian = system: OVCAR-5 ovarian
SK-OV-3 ovarian = system: SK-OV-3 ovarian
786-0 renal = system: 786-0 renal
OVCAR-8 ovarian = system: OVCAR-8 ovarian
CCRF-CEM leukemia = system: CCRF-CEM leukemia
MALME-3M melanoma = system: MALME-3M melanoma
COLO 205 colon = system: COLO 205 colon

Row | SMILES | TGI (K-562 leukemia) | TGI (OVCAR-5 ovarian) | TGI (SK-OV-3 ovarian) | TGI (786-0 renal) | TGI (OVCAR-8 ovarian) | TGI (CCRF-CEM leukemia) | TGI (MALME-3M melanoma) | TGI (COLO 205 colon) [µM] | GI50 (COLO 205 colon) [µM] | GI50 (K-562 leukemia) [µM] | GI50 (SK-OV-3 ovarian) [µM] | GI50 (786-0 renal) [µM] | GI50 (OVCAR-8 ovarian) [µM] | GI50 (CCRF-CEM leukemia) [µM] | GI50 (OVCAR-5 ovarian) [µM]
1 | CNC(=S)OCCC(C)CCCC(C)C (stereo unspecified) | 30.9 µM | 23.9 µM | 41.6 µM | 30.9 µM | 31.5 µM | 40.7 µM | 36.8 µM | – | – | – | – | – | – | – | –
2 | CCOC(=O)CCC1(C(=O)OCC)CCCCC1=O (stereo unspecified) | > 100 µM | > 100 µM | > 100 µM | > 100 µM | > 100 µM | > 100 µM | > 100 µM | > 100 | – | – | – | – | – | – | –
3 | O=C(CCc1nc(=S)[nH][nH]1)Nc1cc(Cl)c(Cl)cc1Cl | > 100 µM | > 100 µM | > 100 µM | > 100 µM | > 100 µM | > 100 µM | > 100 µM | > 100 | – | – | – | – | – | – | –
4 | CN(C)N=Nc1ccc(C(N)=O)cc1 | > 100 µM | > 100 µM | > 100 µM | > 100 µM | > 100 µM | > 100 µM | > 100 µM | > 100 | – | – | – | – | – | – | –
5 | Nc1ccccc1S(=O)(=O)N(CC(=O)O)c1ccccc1 | > 100 µM | > 100 µM | > 100 µM | > 100 µM | > 100 µM | > 100 µM | > 100 µM | > 100 | – | – | – | – | – | – | –
6 | NC(=O)NO.O.O.O.O.O.O.O.O.O.O.O.[Ge].[Ge].[Ge].[Ge].[Ge].[O]=[Ge].[O]=[Ge].[O]=[Ge].[O]=[Ge].[O]=[Ge][OH] | > 100 µM | > 100 µM | > 100 µM | > 100 µM | > 100 µM | > 81.6 µM | > 100 µM | > 100 | – | – | – | – | – | – | –
7 | COC(=O)C1(C(C)C)CCc2c(OC)ccc(OC)c2C1=O (stereo unspecified) | > 100 µM | > 100 µM | > 100 µM | > 100 µM | > 100 µM | > 100 µM | > 100 µM | > 100 | – | – | – | – | – | – | –
8 | CCC[CH2][Sn]([CH2]CCC)([S]c1cccc2cccnc12)[S]c1cccc2cccnc12 | 0.611 µM | – | 1.18 µM | 0.56 µM | 1.16 µM | 0.285 µM | – | 0.224 | 0.0592 | 0.0642 | 0.324 | 0.227 | 0.283 | 0.035 | –
9 | CC1(C(=O)O)CCC[C@@]2(C)C1CC[C@@]1(C)c3cocc3CCC21 (stereo partly specified) | > 100 µM | > 100 µM | > 100 µM | > 100 µM | > 100 µM | > 100 µM | > 100 µM | > 100 | – | – | – | – | – | – | –
10 | CCCCCCCCCCCCCC(=O)OC(/C=C/C(C)C)C(O)C(O)C(OC)C(=O)NC1CCCCN(C)C1=O (stereo unspecified) | 13.4 µM and > 49 µM | 10.8 µM and > 49 µM | 11.5 µM and > 49 µM | 5.94 µM and > 49 µM | 8.44 µM and > 49 µM | 10.7 µM and > 49 µM | 7.93 µM and > 49 µM | – | – | > 49 | > 49 | – | – | > 49 | > 49
11 | C1=C2/CC[C@H](Sc3ccccc3)C2C2(CCCCC/1)OCCO2 (stereo partly specified) | > 100 µM | – | – | > 100 µM | > 100 µM | > 100 µM | 55.2 µM | 37.8 | – | – | – | – | – | – | –
12 | O=C(CCc1nc(=S)[nH][nH]1)Nc1ccc(Cl)c(Cl)c1 | > 100 µM | > 100 µM | > 100 µM | > 100 µM | > 100 µM | > 100 µM | > 100 µM | > 100 | – | – | – | – | – | – | –
13 | COc1cc2cc(OC)c3cc4c(cc3c2c(OC)c1OC)OCO4 | 48 µM | 90.9 µM | > 100 µM | > 90.4 µM | > 100 µM | 37.9 µM | > 100 µM | 44.4 | – | – | – | – | – | – | –
14 | OCC1=CC(NC2CC(CO)C(O)C(O)C2O)C(O)C(O)C1O (stereo unspecified) | > 100 µM | – | > 100 µM | > 100 µM | > 100 µM | > 100 µM | > 100 µM | > 100 | – | – | – | – | – | – | –
15 | COC(=O)/C(C#N)=C1\NC(=O)c2ccccc21 | > 100 µM | > 100 µM | > 100 µM | > 100 µM | > 100 µM | > 100 µM | > 100 µM | > 100 | – | – | – | – | – | – | –
16 | Cc1cc(NS(=O)(=O)c2ccc(Nc3c4ccccc4nc4c(C(=O)N5CCN(CCOS(C)(=O)=O)CC5)cccc34)cc2)no1 | > 100 µM | > 100 µM | > 100 µM | > 100 µM | > 100 µM | > 100 µM | > 100 µM | > 100 | – | – | – | – | – | – | –
17 | CNS(=O)(=O)NNS(=O)(=O)c1ccccc1 | > 100 µM | > 100 µM | > 100 µM | > 100 µM | > 100 µM | > 100 µM | > 100 µM | > 100 | – | – | – | – | – | – | –
18 | Cc1ccc(S(=O)(=O)OC[C@@H]2CO2)cc1 | > 100 µM | > 100 µM | – | > 100 µM | > 100 µM | > 100 µM | > 100 µM | > 100 | – | – | – | – | – | – | –
19 | COc1ccccc1N1C(=O)C2c3[nH]c4ccccc4c3C3CCC(C(C)(C)C)CC3C2C1=O (stereo unspecified) | > 100 µM | – | > 100 µM | > 100 µM | > 100 µM | > 100 µM | > 100 µM | > 100 | – | – | – | – | – | – | –
20 | CCOC(=O)C(C)(C)Oc1ccc2c(-c3ccccc3)cc(=O)oc2c1 | > 100 µM | – | – | > 100 µM | > 100 µM | 63.5 µM | 73.6 µM | 42.7 | – | – | – | – | – | – | –
21 | O=C(O)CCC(NC(=O)c1ccc(Nc2nc3ccccc3nc2-c2cccs2)cc1)C(=O)O (stereo unspecified) | > 100 µM | > 100 µM | > 100 µM | > 100 µM | > 100 µM | > 100 µM | > 100 µM | – | – | – | – | – | – | – | –
